Experimental data from patent US20020114822A1, “Attractants for yellow jackets” (priority 2000, published 2002).

System: yellow jackets indigenous to the west coast (V. pensylvanica)
Test: Trials B: trap catch on the west coast, preferred formulation against heptyl butyrate formulations
Format: in vivo
Conditions: average of two trials of each formulation
From the text: In the Examples and reported test results that follow, traps were usually hung in trees approximately four to six feet above the ground. A number of traps were used in each area where tests were made and the traps were spaced anywhere from fifteen to fifty feet apart. The traps used were commercially available traps generally of the top opening lid variety. Holes were made in the lids which were large enough to allow a yellow jacket to crawl inside the trap but small enough to confuse the yellow jackets in finding their way out. A trap of this kind is commercially available from Woodstream, Inc. sold under its trade name Yellow Jacket Trap®. The “vinegar” used in the examples was a vinegar as defined by FDA being a 5% acetic acid solution derived from apples. The “preferred formulation” used in the below reported trials was comprised of 58% apple juice concentrate; 36% vinegar; 5% poultry liver; and 1% dish detergent. Test were conducted on the west coast to compare the effectiveness of the preferred formulation of the invention with commercial formulations containing heptyl butyrate. Two trials of each formulation were made and the numbers indicate the average number of yellow jackets caught in the trials. […]

## CCCCCCCOC(=O)CCC [Heptyl Butyrate]
  average number of yellow jackets caught: 64
